Test results from patent publication US20030113369A1, “Liposomes with enhanced circulation time and method of treatment” (priority 1991, published 2003).
Entries after “also recorded” stand apart in the source; their conditions may differ. Counter-ions that a name gives are not always drawn.

How the values were obtained:
[1] = system: J-6456 lymphoma; test: Tissue distribution of doxorubicin, subcutaneous tumor; type: in vivo, mice; details: heart, muscle, tumor at 4, 24, 48 hours; 10 mg/kg IV
Procedure: That liposome delivery to the tumor is required for selective drug targeting can be seen from the study reported in Example 12. Here mice were inoculated subcutaneously with the J-6456 lymphoma which formed a solid tumor mass of about 1 cm^3 after one-two weeks. The animals were then injected either with free doxorubicin or doxorubicin loaded into PEG-liposomes at a dose of 10 mg drug per kg body weight. The tissue distribution (heart, muscle, and tumor) of the drug was then assayed at 4, 24, and 48 hours after drug administration.
Two groups of twelve mice were injected subcutaneously with 10^6 J-6456 tumor cells. After 14 days the tumors had grown to about 1 cm^3 in size in the subcutaneous space and the animals were injected IV (tail vein) with 10 mg/kg doxorubicin as free drug (group 1) or encapsulated in PEG liposomes (group 2). At 4, 24, and 48 hours after drug injection, four animal in each group were sacrificed, and sections of tumor, heart, and muscle tissue were excised. Each tissue was weighed, then homogenized and extracted for determination of doxorubicin concentration using a standard florescence assay procedure Gabizon, 1989). The total drug measured in each homogenate was expressed as μg drug per gram tissue.

[2] = system: C-26 colon carcinoma; test: Tumor treatment, subcutaneous colon carcinoma; type: in vivo, mice; details: for survival of the animals at 120 days following tumor implantation: 6 mg/kg on days 1, 8 and 15, seven animals per group; for tumor growth compared with the saline control: IV on days 1, 8 and 15, FIG. 15A
Procedure: Vesicle-forming lipids containing PEG-PE, PG, PHEPC, and cholesterol and α-TC in a mole ratio of 0.15:0.3:1.85:1:0.2 were dissolved in chloroform to a final lipid concentration of 25 μmol phospholipid/ml. The lipid mixture was dried into a thin film under reduced pressure. […] The MLV suspension was frozen in a dry ice acetone bath and thawed three times and sized to 80-100 nm by extrusion as detailed above. An ammonium ion gradient was created substantially as described in Example 10. The liposomes were loaded with epirubicin, and free (unbound drug) removed also as described in Example 10 for doxorubicin. […] Epirubicin HCl and doxorubicin HCL, the commercial products, were obtained from the hospital pharmacy.
About 10^6 cells C-26 colon carcinoma cells were injected subcutaneously into three groups of 35 mice. The groups were subdivided into five 7-animal subgroups.
Each group was followed for 28 days. Tumor size was measured for each animal on days 5, 7, 12, 14, 17, 21, 24 and 28. The growth of the tumor in each subgroup (expressed as the mean tumor size of the individual animals) at each time point is plotted in FIG. 15A.
The same number of animals were inoculated with the same number of tumor cells as described above.

[3] = system: J-6456 lymphoma; test: Tumor treatment, survival after IP lymphoma implantation; type: in vivo, mice; details: 10 mg/kg IV
Procedure: A doxorubicin HCl solution to be used as the free drug control was obtained from a hospital pharmacy. A total of 30 mice were injected IP with 10^6 J-6456 lymphoma cells. The animals were divided into three 10-animal groups, each of which was injected IV with 0.4 ml of either saline vehicle, 10 mg/kg doxorubicin solution or the doxorubicin-loaded liposomes at 10 mg/kg. Each group was followed for 100 days for number of surviving animals. The percent survivors for each treatment group is plotted in FIG. 16.

[4] = Maximum tolerated dose
Procedure: Solutions of free doxorubicin HCl, epirubicin HCl were obtained as above. PEG-liposome formulations containing either doxorubicin or epirubicin, at a drug concentration of 70-90 μg compound/μmole liposome lipid, were prepared as described in Example 10. Conventional liposomes (no PEG-derivatized lipid) were loaded with doxorubicin to a drug concentration of […] lipid using standard techniques.
Each of the five formulations was administered to 35 mice, at a dose between 10 and 40 mg drug/kg body weight, in 5 mg/kg increments, with five receiving each dosage.

[5] = Blood biochemistry; type: in vivo, mice; details: pooled serum
Procedure: Blood chemistries were measured in groups of both male and female mice receiving the same dose and injection schedule of free or PEG-liposomes with entrapped epirubicin as above.

[6] = Multidose toxicity of doxorubicin: weight change and histopathology; type: in vivo, mice; details: four weekly 10 mg/kg, sacrificed day 29
Procedure: FIG. 20 is a plot of weight changes in normal Sabra male mice untreated (open circles) or treated with four weekly intravenous injections on days […] with a 10 mg/kg dose of either free doxorubicin (open triangles) or PEG liposomes with entrapped doxorubicin (open squares); and
Similar reduced toxicity results were obtained when free doxorubicin was compared with PEG liposomes with entrapped doxorubicin, in groups of mice receiving four weekly injections of 10 mg/kg doxorubicin on days 1, 8, 15 and 22.

[7] = system: C-26 colon carcinoma; test: Tumor treatment with conventional doxorubicin liposomes; type: in vivo, mice; details: 10 mg/kg on days 8, 15 and 22; FIG. 17
Procedure: Conventional doxorubicin liposomes (L-DOX) were prepared according to published methods (Gabizon, 1988). Briefly, a mixture of eggPG, Egg,PC, cholesterol and α-TC in a mole ratio of 0.3:1.4:1:0.2 was made in chloroform. The solvent was removed under reduced presssure and the dry lipid film hydrated with a solution of 155 mM NaCl containing 2-5 mg doxorubicin HCl. The resulting MLV preparation was down-sized by extrusion through a series of polycarbonate membranes to a final size of about 250 nm. The free (unentrapped) drug was removed by passing the suspension over a bed of Dowex resin. The final doxorubicin concentration was about […] lipid.
Three groups of 7 mice were inoculated subcutaneously with 10^5-10^6 C-26 colon carcinoma cells as detailed in Example 15. The animals were divided into three, 7-animal treatment groups, one of which receivd 0.5 ml of saline vehicle as a control. The other two groups were treated with doxorubicin either as a free drug solution or in the form of L-DOX liposomes at a dose of 10 mg/kg. The treatments were given on days 8, 15 and 22 after tumor cell inoculation. Tumor size was measured on the days treatments were given and day 28.

[8] = dog, in vivo
Procedure: (§1) The PEG-PE lipids were formulated with hydrogenated soy bean PC(HSPC) and cholesterol, in a mole ratio of 0.15:1.85:1 (PEG-Dox).
(§2) A doxorubicin HCl solution (the marketed product, Free Dox) was obtained from the hospital pharmacy.
(§3) Free DOX, PEG-Dox and HPI-Dox were diluted to the same concentration (1.8 mg/ml) using unbuffered 5% glucose on the day of injection. Dogs were randomized into three groups (2 females, 1 male) and weighed. An 18 gauge Venflon IV catheter was inserted in a superficial limb vein in each animal. The drug and liposome suspensions were injected by quick bolus (15 seconds). Four ml blood samples were before injection and at 5, 10, 15, 30, 45 min, 1, 2, 4, 6, 8, 10, 12, 24, 48 and 72 hours post injection. In the liposome groups blood was also drawn after 96, 120, 144, and 168 hours. Plasma was separated from the formed elements of the whole blood by centrifugation and doxorubicin concentrations assayed by standard fluorescence techniques. The amount of doxorubicin remaining in the blood was expressed as a percentage of peak concentration of labeled drug, measured immediately after injection.

[9] = system: C-26 colon carcinoma; details: cited from earlier work
[10] = system: syngeneic mammary carcinoma cells (MC2); details: cited from earlier work
[11] = Plasma kinetics of free and liposomal doxorubicin; details: dogs
Procedure: as §1, §2, §3

[12] = system: J-6456 lymphoma; test: Tissue distribution of doxorubicin, ascites tumor; details: for Plasma: 10 mg/kg doxorubicin IV; for Plasma / Ascites Tumor (tumor & fluid) / Heart / Liver: value (SD); for Ascites Tumor (tumor & fluid) / Heart / Liver: 10 mg/kg
Procedure: Two groups of 15 mice were injected interperitoneally with 10^6 J-6456 lymphoma cells. The tumor was allowed to grow for one-two weeks at which time 5 ml of ascites fluid had accumulated. The mice were then injected IV with 10 mg/kg doxorubicin either in free drug form (group 1) or entrapped in PEG liposomes as described in Example 11 (group 2). Ascites fluid was withdrawn from three animals in each group at 1, 4, 15, 24 and 48 hours post treatment. The ascites tumor was further fractionated into cellular and fluid components by centrifugation (15 min. 5000 rpm). Free and liposome-bound drug in the supernatant was determined by passing the fluid through a Dowex 50-WX-4 resin, as above, to remove free drug. The doxorubicin concentrations in the ascites fluid, tumor cells, supernatant, and resin-treated supernatant were then determined, and from these values, μg doxorubicin/gram tissue was calculated.
In a similar experiment two groups of twelve mice were implanted IP with the J-6456 lymphoma and the tumor was allowed to establish as described above. Once the ascites tumor had reached about 5 ml, one group of animals was injected with 10 mg/kg free doxorubicin and the other group with 10 mg/kg doxorubicin entrapped in PEG liposomes. At 4, 24 and 48 hours post treatment ascites fluid and blood samples were withdrawn from four animals in each group and the animals were sacrificed. Sections of liver and heart tissue were excised from each animal, homogenized and drug concentration assayed as described above. Plasma was separated from whole blood by centrifugation and drug concentration assayed as stated above. Doxorubicin concentration in the ascites fluid was also measured. Plasma and ascites fluid levels are expressed as pg doxorubicin per ml and liver and heart tissue values as pg doxorubicin per gram tissue. The standard deviations for each measurement is shown in parentheses.

[13] = system: syngeneic MC2 mouse mammary carcinoma; test: Tumor treatment, breast carcinoma; type: in vivo, C3H/He mice; details: 6 mg/kg IV on days 1, 8 and 15; FIG. 21
Procedure: Ten-week-old female C3H/He mice were randomized into three groups of 20 animals and each received bilateral subcutaneous implants of 10^5˜10^6 syngeneic MC2 mouse mammary carcinoma cells on day 0. Intravenous injections of 6 mg/kg of free epirubicin, PEG liposomes with entrapped epirubicin (6 mg/kg) or a saline control were given on days 1, 8 and 15. Weights of the animals were taken on days 0, 7, 14, 22 and 24.
Results of the study are plotted in FIG. 21, where mean tumor size for the three treatment groups is as indicated, expressed as mean tumor size (in mm^3×10^−1) for all three treatment groups. […] At day 24 the statistical confidence between the liposome and free drug groups is extremely high (+=9.9, p<0.0000001 using the Student's +tests).

[14] = Multidose toxicity of epirubicin: weight change and heart histology; type: in vivo, mice
[15] = Survival at 120 days following a single injection

In the case of COc1cccc2c1C(=O)c1c(O)c3c(c(O)c1C2=O)C[C@@](O)(C(=O)CO)C[C@@H]3O[C@H]1C[C@H](N)[C@H](O)[C@H](C)O1.Cl [Free DOX, Doxorubicin HCl], the “selective drug accumulation in the tumor” value [1] is reported as “No selective drug accumulation into the tumor occurred”, the “survival of the animals at 120 days following tumor implantation” value [2] is reported as “none” and the “tumor growth compared with the saline control” value [2] is reported as “neither free doxorubicin nor free epirubicin at 6 mg/kg significantly suppressed tumor growth”. The “survival relative to the saline group” value [3] was “little improvement in survival over the saline group”, the “Maximum Tolerated Dose” value ([4]; in mice, highest dose without death or dramatic weight loss within 14 days) was 10 to 12 mg/kg and the Albumin ([5]; females) was 31 g/1. The “Alk. Phos.” value ([5]; females) was 162 μ/1, the Calcium ([5]; females) was 2.9 mmol/1 and the Chloride ([5]; females) was 118 mmol/1. The Cholesterol ([5]; females) was 4.7 mmol/1, the Creatinine ([5]; females) was 123 μmol/1 and the Glucose ([5]; females) was 2.9 mmol/1. The Phosphorus ([5]; females) was 3.4 mmol/1, the Sodium ([5]; females) was 154 mmol/1 and the Total protein ([5]; females) was 57 g/1. It also gave a Urea ([5]; females) of 12.5 mmol/1, a Uric acid ([5]; females) of 350 μmol/1 and an Albumin ([5]; males) of 21 g/1. The “Alk. Phos.” value ([5]; males) was 129 μ/1, the Bilirubin ([5]; males) was 0 μmol/1 and the Calcium ([5]; males) was 1.6 mmol/1. For the same compound, the Chloride ([5]; males) was 117 mmol/1, the Cholesterol ([5]; males) was 6.0 mmol/1 and the Creatinine ([5]; males) was 37 μmol/1. It also gave a Glucose ([5]; males) of 1.3 mmol/1, a Phosphorus ([5]; males) of 5.2 mmol/1 and a Sodium ([5]; males) of 150 mmol/1. For the same compound, the Total protein ([5]; males) was 39 g/1, the Urea ([5]; males) was 12.4 mmol/1 and the Uric acid ([5]; males) was 333 μmol/1. For the same compound, the “histopathology, gonads” value [6] was “lack of follicular maturation and of spermatogenesis”, the “histopathology, heart” value [6] was “mild to moderate myolysis was seen in all (13) mice” and the “histopathology, kidney” value [6] was “advanced signs of nephrosis”. The “histopathology, lungs, adrenals, small bowel, pancreas, urinary bladder” value [6] was “No damage was observed”, the “histopathology, spleen” value [6] was “reversible atrophy of the red and white pulp” and the “histopathology, liver” value ([6]; listed as free doxorubicin, HCl) was “hematopoiesis foci were present in both groups; also recorded: microcytosis was also observed”. The tumor growth [7] was “suppressed tumor growth to a modest extent compared with the saline control”, the AUC [8] was 7.1 to 10.0 mg/L and the clearance [8] was 10 to 15 mL/min. For the same compound, the “Kinetic Pattern” value ([8]; iv) was “Bi-exp”, the “Peak Conc.” value ([8]; iv) was 0.4 to 2.2 mg/L and the “in vitro activity against C-26 colon carcinoma” value [9] was “show in vitro activity against this tumor”. The “in vitro sensitivity of MC2 cells” value [10] was “sensitive in vitro”, the t1/2 [11] was 1.9 to 3.3 h and the Tumor/Heart ([12]; 4 hours) was 0.0052. The Plasma ([12]; 4 hours) was 0.9 (0.0) μg/ml, the “Ascites Tumor (tumor & fluid)” value ([12]; 4 hours) was 0.3 (0.1) μg/ml and the Heart ([12]; 4 hours) was 5.7 (3.4) μg/gram. For the same compound, the Liver ([12]; 4 hours) was 8.1 (1.4) μg/gram, the Tumor/Heart ([12]; 24 hours) was 0.04 and the Plasma ([12]; 24 hours) was 0.0 µg/mL. For the same compound, the “Ascites Tumor (tumor & fluid)” value ([12]; 24 hours) was 0.1 (0.1) μg/ml, the Heart ([12]; 24 hours) was 2.5 (0.3) μg/gram and the Liver ([12]; 24 hours) was 6.2 (4.8) μg/gram. The Tumor/Heart ([12]; 48 hours) was 0.266, the Plasma ([12]; 48 hours) was 0.0 µg/mL and the “Ascites Tumor (tumor & fluid)” value ([12]; 48 hours) was 0.4 (0.3) μg/ml. The Heart ([12]; 48 hours) was 1.5 (0.6) μg/gram and the Liver ([12]; 48 hours) was 6.1 (3.6) μg/gram.
In the case of COc1cccc2c1C(=O)c1c(O)c3c(c(O)c1C2=O)C[C@@](O)(C(=O)CO)C[C@@H]3O[C@H]1C[C@H](N)[C@@H](O)[C@H](C)O1 [EPI, Epirubicin HCl], the “survival of the animals at 120 days following tumor implantation” value [2] is reported as “none”, the “tumor growth compared with the saline control” value [2] is reported as “neither free doxorubicin nor free epirubicin at 6 mg/kg significantly suppressed tumor growth” and the “tumor response, delayed treatment” value ([2]; days 3, 10, 17 or days 10, 17, 24, 6 mg/kg (liposomes also 9 mg/kg), FIGS. 15B, 15C, 18, listed as free epirubicin, HCl) is reported as “only a modest retardation in the rate of tumor growth; also recorded: no tumor regression was seen”. The tumor growth [13] was “the tumor grows quickly”, the MTD at 14 days ([4]; mouse, in vivo) was 10 mg/kg and the weight change ([14]; three weekly injections from day 3, 26-day period, C-26 tumor-bearing mice, FIG. 19) was “lost weight rapidly starting about day 10”. The “histological examination of heart muscle tissue” value ([14]; three weekly injections, 6 mg/kg free, 6 or 9 mg/kg liposomal) was “significant cardiomyopathy was observed”, the “in vitro activity against C-26 colon carcinoma” value [9] was “show in vitro activity against this tumor” and the “in vitro sensitivity of MC2 cells” value [10] was “sensitive in vitro”. The “Surviving mice at 120 days” value ([15]; 3 mg/kg) was 5/5, the “Surviving mice at 120 days” value ([15]; 6 mg/kg) was 5/5 and the “Surviving mice at 120 days” value ([15]; 9 mg/kg) was 2/5. The “Surviving mice at 120 days” value ([15]; 12 mg/kg) was 0/5, the “Surviving mice at 120 days” value ([15]; 15 mg/kg) was 0/5 and the “dose at which 2/5 animals died” value ([15]; 120 days) was 9 mg/kg.
